The source made the active and inactive calls. The calls are words filed in the database; no cut-off is given here.
Legend:
[1] = target: T1, Bromodomain-containing protein 4 (Homo sapiens, UniProt O60885); assay: Inhibition of BRD4 (unknown origin) by fluorescence polarization assay
CREB-binding protein = CREB-binding protein (Homo sapiens, UniProt Q92793); assay: Inhibition of CREBBP (unknown origin) by FRET assay
Homo sapiens = species: Homo sapiens; assay: Selectivity ratio of IC50 for BRD4 (unknown origin) to IC50 for CREBBP (unknown origin)
[2] = target: T1, Bromodomain-containing protein 4; assay: Inhibition of human BRD4 by fluorescence polarization assay
[3] = Lipophilicity, log D of the compound at pH 7.4 by shake flask method; type: physicochemical; details: buffer
[4] = target: Histone acetyltransferase p300 (Homo sapiens) (UniProt Q09472); assay: Inhibition of human EP300 (1040 to 1161 residues) expressed in bacterial expression system at 10 uM by bromoscan assay
Chain of Histone acetyltransferase p300 (Homo sapiens) (Q09472 whole entry, the tested form may be a part): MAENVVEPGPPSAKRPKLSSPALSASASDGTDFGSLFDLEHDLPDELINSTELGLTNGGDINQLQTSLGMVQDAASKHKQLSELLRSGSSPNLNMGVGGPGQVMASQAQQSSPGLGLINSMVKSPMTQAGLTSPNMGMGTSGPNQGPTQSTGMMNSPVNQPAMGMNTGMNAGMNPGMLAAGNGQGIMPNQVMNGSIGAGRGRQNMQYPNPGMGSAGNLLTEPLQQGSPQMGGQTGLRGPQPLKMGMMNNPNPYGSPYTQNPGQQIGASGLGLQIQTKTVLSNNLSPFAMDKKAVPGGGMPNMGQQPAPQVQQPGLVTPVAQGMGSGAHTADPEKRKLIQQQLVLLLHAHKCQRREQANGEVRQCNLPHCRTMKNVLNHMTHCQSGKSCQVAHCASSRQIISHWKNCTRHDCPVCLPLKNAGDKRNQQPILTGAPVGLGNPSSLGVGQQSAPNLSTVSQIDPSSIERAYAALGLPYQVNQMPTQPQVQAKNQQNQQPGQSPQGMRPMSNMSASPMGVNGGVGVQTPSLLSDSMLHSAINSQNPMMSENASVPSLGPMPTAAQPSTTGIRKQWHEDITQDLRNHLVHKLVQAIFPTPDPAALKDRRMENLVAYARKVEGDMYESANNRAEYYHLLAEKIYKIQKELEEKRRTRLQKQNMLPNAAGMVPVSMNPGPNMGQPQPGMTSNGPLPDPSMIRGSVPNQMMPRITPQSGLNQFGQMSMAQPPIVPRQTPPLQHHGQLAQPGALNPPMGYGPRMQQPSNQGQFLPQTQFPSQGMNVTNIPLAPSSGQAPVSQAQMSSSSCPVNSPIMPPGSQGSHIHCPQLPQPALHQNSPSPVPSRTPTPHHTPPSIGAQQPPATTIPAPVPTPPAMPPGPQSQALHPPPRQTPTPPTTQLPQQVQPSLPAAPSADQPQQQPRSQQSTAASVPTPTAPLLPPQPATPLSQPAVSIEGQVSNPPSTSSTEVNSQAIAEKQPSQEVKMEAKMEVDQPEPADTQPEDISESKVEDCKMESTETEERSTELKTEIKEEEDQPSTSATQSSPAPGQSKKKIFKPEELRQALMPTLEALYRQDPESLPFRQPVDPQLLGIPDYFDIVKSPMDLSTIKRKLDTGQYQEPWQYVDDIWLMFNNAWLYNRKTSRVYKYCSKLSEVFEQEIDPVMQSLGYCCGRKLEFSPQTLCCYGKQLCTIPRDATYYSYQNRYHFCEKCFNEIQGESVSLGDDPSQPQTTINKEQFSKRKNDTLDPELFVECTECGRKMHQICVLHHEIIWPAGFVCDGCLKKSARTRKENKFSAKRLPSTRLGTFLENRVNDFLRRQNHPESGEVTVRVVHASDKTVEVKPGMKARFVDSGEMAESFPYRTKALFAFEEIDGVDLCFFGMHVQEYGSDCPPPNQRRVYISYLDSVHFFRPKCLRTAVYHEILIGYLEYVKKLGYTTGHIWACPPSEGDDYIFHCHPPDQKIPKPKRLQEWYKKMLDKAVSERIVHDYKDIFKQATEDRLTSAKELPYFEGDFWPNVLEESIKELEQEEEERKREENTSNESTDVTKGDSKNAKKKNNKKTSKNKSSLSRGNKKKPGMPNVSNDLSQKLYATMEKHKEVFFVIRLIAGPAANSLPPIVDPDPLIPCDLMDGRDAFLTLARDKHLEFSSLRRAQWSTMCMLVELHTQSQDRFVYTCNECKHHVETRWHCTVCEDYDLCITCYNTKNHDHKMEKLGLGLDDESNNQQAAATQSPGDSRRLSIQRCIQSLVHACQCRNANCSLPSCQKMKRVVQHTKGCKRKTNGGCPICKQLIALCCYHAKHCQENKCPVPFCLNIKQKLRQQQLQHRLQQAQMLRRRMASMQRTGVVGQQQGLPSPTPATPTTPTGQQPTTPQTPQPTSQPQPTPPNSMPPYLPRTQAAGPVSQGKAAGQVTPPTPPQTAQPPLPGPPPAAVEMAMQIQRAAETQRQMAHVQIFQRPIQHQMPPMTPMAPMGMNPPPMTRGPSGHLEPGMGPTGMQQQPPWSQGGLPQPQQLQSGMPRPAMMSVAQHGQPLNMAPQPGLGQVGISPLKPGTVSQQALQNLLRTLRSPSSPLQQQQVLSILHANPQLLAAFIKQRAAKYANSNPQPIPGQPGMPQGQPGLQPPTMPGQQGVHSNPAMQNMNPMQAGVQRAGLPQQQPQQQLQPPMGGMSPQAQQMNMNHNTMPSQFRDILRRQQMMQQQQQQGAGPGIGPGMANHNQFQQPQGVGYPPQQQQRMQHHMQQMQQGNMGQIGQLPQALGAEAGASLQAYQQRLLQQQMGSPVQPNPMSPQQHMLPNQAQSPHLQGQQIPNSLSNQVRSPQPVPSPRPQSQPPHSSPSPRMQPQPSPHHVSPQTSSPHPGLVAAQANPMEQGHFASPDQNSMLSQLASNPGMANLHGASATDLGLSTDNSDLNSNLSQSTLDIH

[5] = Passive permeability of the compound at 2 uM by cell-based assay; type: physicochemical; details: not told; read-out: permeability
[6] = target: Voltage-gated L-type calcium channel (Homo sapiens, UniProt Q13936+Q13698+Q01668+O60840); assay: Inhibition of L-type calcium channel (unknown origin)
[7] = target: T2, Alpha-1A adrenergic receptor (Homo sapiens, UniProt P35348); assay: Displacement of [3H]prazosin from recombinant human adrenergic A1a receptor after 60 mins by scintillation counting method
T2 sequence (P35348 whole entry): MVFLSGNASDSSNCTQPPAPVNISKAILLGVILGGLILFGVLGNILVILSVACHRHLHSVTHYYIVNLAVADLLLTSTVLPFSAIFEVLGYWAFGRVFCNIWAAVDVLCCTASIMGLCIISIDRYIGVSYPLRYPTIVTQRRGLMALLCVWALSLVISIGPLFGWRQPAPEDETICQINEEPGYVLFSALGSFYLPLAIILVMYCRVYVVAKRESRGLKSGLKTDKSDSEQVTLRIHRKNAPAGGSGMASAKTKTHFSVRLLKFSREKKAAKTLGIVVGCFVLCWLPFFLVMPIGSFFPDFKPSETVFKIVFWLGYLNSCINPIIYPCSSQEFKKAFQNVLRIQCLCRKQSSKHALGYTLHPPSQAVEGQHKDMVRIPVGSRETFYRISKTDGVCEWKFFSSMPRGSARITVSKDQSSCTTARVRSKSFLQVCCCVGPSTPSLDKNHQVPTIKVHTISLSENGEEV

[8] = Intrinsic clearance in human microsomes at 1 uM; type: ADME, Microsome
[9] = target: T1, Bromodomain-containing protein 4; assay: Binding affinity to BRD4 (unknown origin) at 75 to 100 uM by isothermal titration assay

Chain of CREB-binding protein (Q92793 whole entry): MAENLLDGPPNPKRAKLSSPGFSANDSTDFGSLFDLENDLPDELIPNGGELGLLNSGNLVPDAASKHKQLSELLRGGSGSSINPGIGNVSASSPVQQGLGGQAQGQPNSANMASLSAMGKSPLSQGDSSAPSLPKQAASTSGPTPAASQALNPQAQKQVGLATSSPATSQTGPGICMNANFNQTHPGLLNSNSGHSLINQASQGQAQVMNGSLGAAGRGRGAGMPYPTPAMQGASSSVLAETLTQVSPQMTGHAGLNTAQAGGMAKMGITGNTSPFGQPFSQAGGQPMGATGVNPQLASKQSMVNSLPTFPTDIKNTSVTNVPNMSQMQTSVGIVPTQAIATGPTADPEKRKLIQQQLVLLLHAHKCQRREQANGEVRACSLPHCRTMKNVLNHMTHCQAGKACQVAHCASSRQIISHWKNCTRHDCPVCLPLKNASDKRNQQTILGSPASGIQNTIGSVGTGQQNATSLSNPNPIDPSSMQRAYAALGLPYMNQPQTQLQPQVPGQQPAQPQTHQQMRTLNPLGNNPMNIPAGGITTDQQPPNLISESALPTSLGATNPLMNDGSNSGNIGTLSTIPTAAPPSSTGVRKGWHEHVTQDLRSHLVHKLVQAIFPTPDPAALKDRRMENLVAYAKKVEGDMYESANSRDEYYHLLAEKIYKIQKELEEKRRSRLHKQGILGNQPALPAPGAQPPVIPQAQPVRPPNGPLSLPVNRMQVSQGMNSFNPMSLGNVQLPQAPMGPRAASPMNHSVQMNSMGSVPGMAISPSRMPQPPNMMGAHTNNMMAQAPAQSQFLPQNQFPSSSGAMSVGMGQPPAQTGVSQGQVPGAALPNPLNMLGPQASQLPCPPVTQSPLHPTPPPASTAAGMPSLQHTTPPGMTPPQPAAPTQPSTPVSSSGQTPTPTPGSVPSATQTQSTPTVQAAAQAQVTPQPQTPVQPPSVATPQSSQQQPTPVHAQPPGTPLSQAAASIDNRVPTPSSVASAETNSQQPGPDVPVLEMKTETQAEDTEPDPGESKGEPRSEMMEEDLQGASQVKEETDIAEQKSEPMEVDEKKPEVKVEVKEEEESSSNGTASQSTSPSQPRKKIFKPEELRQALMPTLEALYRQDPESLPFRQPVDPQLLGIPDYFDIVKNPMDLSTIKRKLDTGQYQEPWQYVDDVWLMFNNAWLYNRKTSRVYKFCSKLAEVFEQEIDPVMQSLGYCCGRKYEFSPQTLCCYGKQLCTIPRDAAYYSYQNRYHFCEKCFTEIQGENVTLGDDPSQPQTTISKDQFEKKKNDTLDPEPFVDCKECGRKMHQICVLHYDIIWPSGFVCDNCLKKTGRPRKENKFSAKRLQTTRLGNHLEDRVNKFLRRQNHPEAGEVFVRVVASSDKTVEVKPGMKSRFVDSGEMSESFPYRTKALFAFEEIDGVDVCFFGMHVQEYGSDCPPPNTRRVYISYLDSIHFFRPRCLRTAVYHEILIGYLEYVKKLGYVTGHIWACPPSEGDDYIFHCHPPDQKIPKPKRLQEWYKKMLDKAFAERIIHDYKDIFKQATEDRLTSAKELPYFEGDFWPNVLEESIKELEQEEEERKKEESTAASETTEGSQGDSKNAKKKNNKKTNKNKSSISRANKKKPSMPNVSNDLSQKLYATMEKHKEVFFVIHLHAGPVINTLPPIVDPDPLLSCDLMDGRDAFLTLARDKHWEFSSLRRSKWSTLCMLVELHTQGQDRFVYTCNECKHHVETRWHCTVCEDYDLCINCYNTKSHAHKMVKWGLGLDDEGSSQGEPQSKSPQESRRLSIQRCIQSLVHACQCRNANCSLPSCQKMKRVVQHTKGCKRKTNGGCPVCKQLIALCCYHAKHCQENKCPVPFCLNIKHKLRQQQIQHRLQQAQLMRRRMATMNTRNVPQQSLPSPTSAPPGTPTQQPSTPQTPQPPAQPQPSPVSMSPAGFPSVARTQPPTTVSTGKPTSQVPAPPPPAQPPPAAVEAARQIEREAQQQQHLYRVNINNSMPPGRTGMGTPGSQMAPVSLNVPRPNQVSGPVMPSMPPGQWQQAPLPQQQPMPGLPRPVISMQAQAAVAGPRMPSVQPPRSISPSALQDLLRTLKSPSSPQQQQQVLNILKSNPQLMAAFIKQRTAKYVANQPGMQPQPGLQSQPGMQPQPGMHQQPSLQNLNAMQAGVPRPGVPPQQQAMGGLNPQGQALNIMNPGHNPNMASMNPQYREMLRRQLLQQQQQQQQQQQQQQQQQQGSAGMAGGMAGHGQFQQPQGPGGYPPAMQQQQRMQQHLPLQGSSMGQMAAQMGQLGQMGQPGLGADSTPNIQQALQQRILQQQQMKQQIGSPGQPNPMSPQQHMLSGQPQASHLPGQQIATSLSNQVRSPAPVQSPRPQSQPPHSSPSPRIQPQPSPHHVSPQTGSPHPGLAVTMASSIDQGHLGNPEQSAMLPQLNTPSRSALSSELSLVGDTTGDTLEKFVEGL

SMILES	IC50 [1] [µM]	IC50 (CREB-binding protein) [µM]	Ratio IC50 (Homo sapiens)	further results
COc1ccc(CCc2cc3cc(-c4c(C)noc4C)ccc3n2CCN2CCOCC2)cc1	> 120	1.5	–	–
Cc1noc(C)c1-c1ccc2c(c1)nc(-c1cnn3c1CCC3)n2CCN1CCOCC1	1.6	0.13	12	–
Cc1noc(C)c1-c1ccc2c(c1)nc(CCc1ccccc1)n2CC(=O)N1CCOCC1	13.2	0.36	37	–
CCCCCOc1ccc(CCc2nc3cc(-c4c(C)noc4C)ccc3n2CCN2CCOCC2)cc1	6.9	0.69	10	–
Cc1noc(C)c1-c1ccc2c(c1)nc(CCc1ccc3ccccc3n1)n2CCN1CCOCC1	4.9	0.16	31	–
Cc1noc(C)c1-c1ccc2c(c1)nc1n2[C@H](CN2CCOCC2)CC1Cc1ccccc1 (single isomer, unassigned; 32) [listing 1 of 2 here]	–	–	> 62	–
Cc1noc(C)c1-c1ccc2c(c1)nc(CCc1ccncc1)n2CCN1CCOCC1	4.1	0.4	10	–
COc1ccc(OCc2nc3cc(-c4c(C)noc4C)ccc3n2CCN2CCOCC2)cc1	9.2	0.92	10	–
COc1ccc(CCc2nc3cc(-c4c(C)noc4C)ccc3n2CCN2CCOCC2)c(OC)c1	8.3	0.24	35	–
Cc1nc(C)n(-c2ccc3c(c2)nc(CCc2ccccc2)n3CCN2CCOCC2)n1	> 120	> 30	–	–
COc1ccc(CCc2c(C#N)c3cc(-c4c(C)noc4C)ccc3n2CCN2CCOCC2)cc1	> 120	0.5	> 240	–
COc1ccc([C@H]2OCC[C@@H]2c2nc3cc(-c4c(C)noc4C)ccc3n2CCN2CCOCC2)cc1	9.4	0.14	67	–
Cc1noc(C)c1-c1ccc2c(c1)nc(CCc1ccccn1)n2CCN1CCOCC1	3.2	0.33	10	–
COc1ccc(CCc2nc3cc(-c4c(C)noc4C)ccc3n2CCN2CCOCC2)cc1OC	9.4	0.47	20	–
Cc1noc(C)c1-c1ccc2c(c1)nc(CCc1ccc(OC(C)C)cc1)n2CCN1CCOCC1	4.5	0.2	23	–
Cc1noc(C)c1-c1ccc2c(c1)nc([C@@H]1CCO[C@H]1c1ccccc1)n2CCN1CCOCC1	0.49	0.076	6	–
Cc1noc(C)c1-c1ccc2c(c1)nc(CCc1ccccc1)n2CCN1CCOCC1	4.1	0.24	17	–
Cc1noc(C)c1-c1ccc2c(c1)nc(CCc1ccc(N)cc1)n2CCN1CCOCC1	3.4	0.09	38	–
Cc1noc(C)c1-c1ccc2c(c1)nc1n2[C@H](CN2CCOCC2)CC1Cc1ccccc1 (single isomer, unassigned; 31) [listing 1 of 2 here]	2	0.45	–	–
Cc1noc(C)c1-c1ccc2c(c1)nc(CCc1ccc(C#N)cc1)n2CCN1CCOCC1	4.9	0.3	16	–

SMILES	IC50 [1] [µM]	IC50 (CREB-binding protein) [µM]	Ratio IC50 (Homo sapiens)	further results
COc1ccc(CCc2nc3cc(-c4c(C)noc4C)ccc3n2C[C@H](C)N2CCOCC2)cc1Cl	–	–	–	IC50 [2]: 5.85 µM
COc1ccc(CCc2cc3nc(-c4c(C)noc4C)ccc3n2CCN2CCOCC2)cc1	18.4	0.17	> 100	logD [3]: 3.29; inhibition [4]: Active; Papp at 2 µM [5]: 6.8 ×10⁻⁶ cm/s
CC(=O)Nc1ccc(CCc2nc3cc(-c4c(C)noc4C)ccc3n2CCN2CCOCC2)cc1	1.4	0.2	7	–
COc1ccccc1CCc1nc2cc(-c3c(C)noc3C)ccc2n1CCN1CCOCC1	13.9	0.98	14	–
COc1cc(-c2ccc3c(c2)nc(CCc2ccccc2)n3CCN2CCOCC2)cccc1=O	0.35	0.21	–	–
CCc1noc(C)c1-c1ccc2c(c1)nc(CCc1ccccc1)n2CCN1CCOCC1	6	0.31	–	–
Cc1noc(C)c1-c1ccc2c(c1)nc(CCc1cncc3ccccc13)n2CCN1CCOCC1	16.8	2.5	7	–
Cc1noc(C)c1-c1ccc2c(c1)nc(CCc1cccnc1)n2CCN1CCOCC1	5.8	0.78	7.4	–
Cc1noc(C)c1-c1ccc2c(c1)nc(CCc1c[nH]c3ccccc13)n2CCN1CCOCC1	10.1	0.74	14	–
CCCCOc1ccc(CCc2nc3cc(-c4c(C)noc4C)ccc3n2CCN2CCOCC2)cc1	11.2	0.26	43	–
Cc1noc(C)c1-c1ccc2c(c1)nc(CCc1ccc(N(C)C)cc1)n2CCN1CCOCC1	4.3	0.21	20	–
CCOc1ccc(CCc2nc3cc(-c4c(C)noc4C)ccc3n2CCN2CCOCC2)cc1	6.6	0.13	51	–
Cc1noc(C)c1-c1ccc2c(c1)nc(CCc1ccc(OC(F)(F)F)cc1)n2CCN1CCOCC1	18.5	–	–	–
Cc1noc(C)c1-c1ccc2c(c1)nc1n2[C@H](CN2CCOCC2)CC1Cc1ccccc1 (single isomer, unassigned; 31) [listing 2 of 2 here]	–	–	4	–
Cc1noc(C)c1-c1ccc2c(c1)nc(COc1ccccc1)n2CCN1CCOCC1	14.4	0.4	36	–
CCn1cc(-c2ccc3c(c2)nc(CCc2ccccc2)n3CCN2CCOCC2)ccc1=O	3.9	0.5	–	–
Cc1n[nH]c(C)c1-c1ccc2c(c1)nc(CCc1ccccc1)n2CCN1CCOCC1	> 10	2.4	–	–
CCCOc1ccc(CCc2nc3cc(-c4c(C)noc4C)ccc3n2CCN2CCOCC2)cc1	–	–	62	inhibition [4]: Active; IC50 [6]: 3 µM; IC50 [7]: 0.62 µM; microsomal CLint at 1 µM [8]: > 300 µL/min/mg; Activity [9]: inactive; Papp at 2 µM [5]: 7.9 ×10⁻⁶ cm/s
Cc1noc(C)c1-c1ccc2c(c1)nc1n2[C@H](CN2CCOCC2)CC1Cc1ccccc1 (single isomer, unassigned; 32) [listing 2 of 2 here]	> 80	1.3	–	–
COc1cccc(CCc2nc3cc(-c4c(C)noc4C)ccc3n2CCN2CCOCC2)c1	4.6	0.31	15	–

Reference: ChEMBL document CHEMBL4011614 (J Med Chem, 2017)
